Laboratory results: publication PMC12690573, “Playing with Structural Parameters in the Design of Ruthenium(II)–p‑Cymene Complexes as Potential Antibacterial Agents” (Inorganic Chemistry, 2025)
≈ marks a conversion by molar mass, not a printed value. Read-outs that look alike come from different tables or passages of the source.

How the values were obtained:
[1] = Aquation (Ru–Cl hydrolysis) followed by UV–vis in aqueous solution; format: physicochemical; details: neutral pH, 298 K; for k water (aquation rate constant) / t 1/2 (aquation half-life): 10 μM, pseudo-first-order model
Description: In view of the well-known lability of the Ru(II)–Cl bond in RACs and considering its relevance for their biological mechanism of action, the aquation process of all systems was investigated. This was performed according to literature methods spectrophotometrically, by registering the UV–vis spectra of freshly prepared aqueous solutions of complexes at neutral pH over different times, up to 12 h, at 298 K. Results for Ru-pCy1 are shown in Figure , while those for the other complexes are reported in Figures S27–S28 Supporting Information. […] The temporal evolution to the aquo-species is also further supported by comparison of spectra collected at increasing time frames and the absorption profile of the aquo species, registered by adding AgNO3 to the metal complex (Figure b). A similar behavior was also observed for the other compounds, confirming their capability to readily lose the chloride ligand. […] Hydrolysis was not observed during the stability experiments (Figure S26), likely being suppressed by the high NaCl concentration in the PBS buffer media (140 mM).
The aquation rate constants (k water) and the corresponding half-lives (t 1/2) were determined by the time-dependent absorbance changes at the MLCT maxima according to a pseudo-first-order kinetic model. The resulting values, reported in Table , range between 2.48 and 5.4 × 10^–4 s^–1.

[2] = Stability in CH3CN/PBS solution by UV–vis over 72 h; format: physicochemical; details: 1 × 10^–5 M in CH3CN/PBS (CH3CN 1% v/v), room temperature
Description: To gain insights into the suitability of RACs for biological purposes, their stability in aqueous solution was investigated before studying their interactions with representative proteins (SOD, RNase A, and CytC) by ESI-MS analysis (vide infra). Measurements were performed under strictly controlled conditions (temperature, pH, and complex concentration), namely, at a concentration of 1 × 10^–5 M in CH3CN/PBS solution (CH3CN 1% v/v) at room temperature, over a total of 72 h. The resulting time-dependent absorption profiles are reported in Figure S26 (Supporting Information).
Spectrofluorimetric-grade solvents were used for the preparation of all solutions. The PBS solution (pH 7.4, KCl 2.7 mM, NaCl 140 mM, phosphate 10 mM) was prepared according to the standard procedure. RACs were dissolved in CH3CN and then diluted to reach a final concentration of 1 × 10^–5 M in CH3CN/buffer solution (CH3CN 1% v/v). A PerkinElmer Lambda 900 spectrophotometer was employed to record the UV–Visible absorption spectra using 10 mm path-length quartz cuvettes.

[3] = molecular target: T1, Bovine Superoxide Dismutase (SOD) (Bos taurus, UniProt P00442); assay: ESI-MS protein interaction study with SOD; format: binding; details: 1:3 protein to ruthenium ratio, 24 h, 37 °C
T1 construct: purchased Merck
T1 sequence (P00442 whole entry): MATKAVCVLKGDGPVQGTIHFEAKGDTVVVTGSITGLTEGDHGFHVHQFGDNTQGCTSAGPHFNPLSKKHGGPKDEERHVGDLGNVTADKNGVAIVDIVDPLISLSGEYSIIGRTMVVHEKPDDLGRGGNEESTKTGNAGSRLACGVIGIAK
Description: (§1) Accordingly, ESI-MS spectra of RNase A, SOD, and CytC incubated for 24 h with a 3-fold molar excess of each of the five different ruthenium complexes were recorded. […] This could be exacerbated by the steric hindrance of L3.
(§2) Sample preparation: stock solutions of Bovine Superoxide Dismutase SOD) (Merck), Bovine Pancreatic Ribonuclease A (Merck), and Horse Heart Cytochrome c (Merck) 10^–3 M were prepared by dissolving the lyophilized protein in LC–MS-grade water. Stock solutions 10^–2 M RACs were prepared by dissolving the samples in acetonitrile. For the experiments, an aliquot of the stock solutions of the selected protein was mixed with aliquots of each ruthenium compounds at protein-to-metal ratio 1:3 and diluted with LC–MS-grade water to 100 μM final protein concentration. The mixtures were incubated at 37 °C up to 24 h. After the incubation time, the protein solutions were sampled and diluted to a final protein concentration of 500 nM using LC–MS-grade water and adding 0.1% v/v of formic acid just before the infusion in the mass spectrometer.
(§3) Instrumental parameters: the ESI mass spectra were acquired through direct infusion at 7 μL min^–1 flow rate in a TripleTOF 5600+ high-resolution mass spectrometer (Sciex, Framingham, MA, U.S.A.), equipped with a DuoSpray interface operating with an ESI probe.
SOD: positive polarity, IonSpray Voltage Floating 5500 V, Temperature 0, Ion source Gas 1 (GS1) 40 L/min; Ion source Gas 2 (GS2) 0; Curtain Gas (CUR) 15 L/min, Declustering Potential (DP) 200 V, Collision Energy (CE) 10 V, acquisition range 1500–3500 m/z.
(§4) For acquisition, Analyst TF software 1.7.1 (Sciex) was used, and deconvoluted spectra were obtained by using the Bio Tool Kit microapplication v.2.2 embedded in Peak-ViewTM software v.2.2 (Sciex).

[4] = pKa of coordinated water ligand, potentiometric; format: physicochemical; details: H2O/EtOH 4:1 v/v, NaClO4 0.1 M, 298 K, 1 mM
Description: (§5) The acid–base behavior of the coordinated water ligand to the metal scaffold was also considered. To this aim, the UV–vis spectra of batchwise aqueous solutions of the lead compound Ru-pCy1 at different pH at 298 K were registered, and the changes in the MLCT region were monitored. […] A slightly higher value (8.82 ± 0.08) was instead determined potentiometrically under mixed solvent conditions (H2O/EtOH 4:1 v/v, NaClO4 0.1 M, 298 K, ligand concentration 1 mM), required to ensure the full solubilization of the complex.

B. subtilis 168 = assay: Antibacterial susceptibility, broth microdilution (OD600); format: cell-based, Bacillus subtilis; details: for MIC: B. subtilis 168, MHB, 24 h; for Concentration inducing approximately 50% inhibition of bacterial growth / Antibacterial activity profile (in words): B. subtilis; for Concentration inducing approximately 50% inhibition of bacterial growth: normalized OD600, 24 h; for Antibacterial activity profile (in words): normalized OD600 vs concentration
Source text: (§6) The antibacterial properties of Ru-pCy1–5 were investigated against Burkholderia cenocepacia strains J2315 and K56-2, two well-characterized clinical isolates of this Gram-negative pathogen, as well as against Bacillus subtilis 168, which was used as a model for a Gram-positive bacterial strain.
(§7) The obtained results are presented as normalized OD600 values, reporting the ratio of bacterial growth relative to that of the control (untreated) cells. These are plotted in Figure as a function of the compound concentrations (μg/mL), providing a quantitative assessment of the dose-dependent effects on bacterial growth of the tested ruthenium complexes.
(§8) Antimicrobial susceptibility was assessed in the following strains: B. cenocepacia K56-2 and J2315 and B. subtilis 168. For each bacterial strain, three independent biological replicates were prepared by inoculating Mueller–Hinton Broth (MHB) into sterile culture tubes, followed by overnight incubation at 37 °C with shaking at 130 rpm. Cultures were diluted to a final OD600 of 0.05 per well in 96-well microplates (Sarstedt AG & Co.) and exposed to 10 serial 2-fold dilutions of the compounds, ranging from 256 μg/mL to 0.5 μg/mL. Each biological replicate included three technical replicates. Growth inhibition was assessed visually and quantified by measuring OD600 after 24 h for B. subtilis 168 and after 48 h for B. cenocepacia strains K56-2 and J2315 using a Tecan Infinite 200 PRO plate reader.

[5] = molecular target: T2, Bovine Pancreatic Ribonuclease A (Bos taurus, UniProt P61823); assay: ESI-MS protein interaction study with RNase A; format: binding; details: 1:3 protein to ruthenium ratio, 24 h, 37 °C
T2 construct: Bovine Pancreatic Ribonuclease A (Merck); purchased Merck
T2 sequence (P61823 27-150): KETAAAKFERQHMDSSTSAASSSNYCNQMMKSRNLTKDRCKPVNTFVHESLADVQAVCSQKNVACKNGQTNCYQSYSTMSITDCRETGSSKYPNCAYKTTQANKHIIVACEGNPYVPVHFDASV
Description: as §1, §2, §3
RNase: positive polarity, Ionspray Voltage Floating 5500 V, Temperature 0, Ion source Gas 1 (GS1) 40 L/min; Ion source Gas 2 (GS2) 0; Curtain Gas (CUR) 15 L/min, Declustering Potential (DP) 100 V, Collision Energy (CE) 10 V, acquisition range 1000–2600 m/z.
as §4

[6] = pKa of coordinated water ligand by UV–vis pH titration; format: physicochemical; details: absorbance at 435 nm, Henderson–Hasselbalch fit, 298 K
Source text: Lastly, the tendency of the coordinated water ligand to undergo deprotonation was also considered. This has been investigated for the lead compound Ru-pCy1, by recording the UV–vis spectra of batchwise aqueous solutions of the complex at different pH values and monitoring the changes in the MLCT region (Figure S29).
as §5

[7] = Water–octanol partition coefficient, shake-flask method (Log P pH7.4); format: physicochemical; details: PBS pH 7.4 / n-octanol, 16 μM
Description: The study was performed by using the shake-flask method, obtaining the water–octanol partition coefficients of complexes in PBS buffer at pH = 7.4 (Log P pH7.4), as listed in Table .
The octanol–water distribution coefficients were determined at pH 7.4 using the shake-flask method. , Briefly, solutions of the tested compounds (16 μM) in phosphate buffer (pH 7.4) were mixed with n-octanol in flasks at three different PBS:n-octanol ratios (1:1, 0.5:1, 2:1). The mixtures were manually shaken to allow equilibration between the organic and aqueous phases. Subsequently, phase separation was achieved by centrifugation at 4000 rpm for 10 min. The concentrations of ruthenium compounds in both phases were then determined spectrophotometrically. The log P 7.4 values were calculated as the mean value of the log[Ru-pCy1–5]-oct/[Ru-pCy1–5]PBS/4 values obtained from the three different PBS:n-octanol ratio samples for each complex.

B. cenocepacia J2315 = assay: Antibacterial susceptibility, broth microdilution (OD600); format: cell-based, Burkholderia cenocepacia; details: for MIC: B. cenocepacia J2315, MHB, 48 h
Source text: as §6, §7, §8

B. cenocepacia K56-2 = assay: as above; format: cell-based, Burkholderia cenocepacia; details: B. cenocepacia K56-2, MHB, 48 h
Source text: as §6, §7, §8

Horse Heart Cytochrome c = molecular target: T3, Horse Heart Cytochrome c (Equus caballus, UniProt P00004); assay: ESI-MS protein interaction study with CytC; format: binding; details: 1:3 protein to ruthenium ratio, 24 h, 37 °C
T3 construct: Horse Heart Cytochrome c (Merck); purchased Merck
T3 sequence (P00004 whole entry): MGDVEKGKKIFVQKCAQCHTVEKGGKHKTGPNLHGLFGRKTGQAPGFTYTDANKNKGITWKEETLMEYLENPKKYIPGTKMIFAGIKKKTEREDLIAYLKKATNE
Description: as §1, §2
Instrumental parameters: the ESI mass spectra were acquired through direct infusion at 7 μL min^–1 flow rate in a TripleTOF 5600+ high-resolution mass spectrometer (Sciex, Framingham, MA, U.S.A.), equipped with a DuoSpray interface operating with an ESI probe. […]

| t 1/2 (aquation half-life) [1] [min] | Adduct formation with SOD [3] | pK a of coordinated water ligand [4] | MIC (B. subtilis 168) [µg/mL] | Adduct formation with RNase A [5] | pK a of coordinated water ligand [6] | Log P pH7.4 [7] | MIC (B. cenocepacia J2315) [µg/mL] | MIC (B. cenocepacia K56-2) [µg/mL] | Ru–Cl hydrolysis (spectral variation over time) ([1]; aqueous solution, up to 12 h) | Adduct formation with CytC (Horse Heart Cytochrome c) | MIC (B. subtilis 168; Bacillus subtilis, read-out: MIC) [µg/mL] | MIC (B. cenocepacia J2315; Burkholderia cenocepacia, read-out: MIC) [µg/mL] | MIC (B. cenocepacia K56-2; Burkholderia cenocepacia, K562, read-out: MIC) [µg/mL] | Structure (SMILES) | k water (aquation rate constant) [1] | Stability in aqueous solution [2] | Concentration inducing approximately 50% inhibition of bacterial growth (B. subtilis 168) [µg/mL] | Antibacterial activity profile (in words) (B. subtilis 168) | Concentration inducing approximately 50% inhibition of bacterial growth (B. cenocepacia J2315; B. cenocepacia J2315, normalized OD600, 48 h) [µg/mL] |
| --- | --- | --- | --- | --- | --- | --- | --- | --- | --- | --- | --- | --- | --- | --- | --- | --- | --- | --- | --- |
| 46.5 ± 2.0 | form stable adducts | 8.82 ± 0.08 | 128 | form stable adducts | 8.3 ± 0.1 | 0.80 ± 0.30 | 128 | 256 |  |  |  |  |  | Cc1ccc(C(C)C)cc1.F[P-](F)(F)(F)(F)F.[Cl-].[Ru+2].c1ccc2cc3nc4c5cccnc5c5ncccc5c4nc3cc2c1 [Ru-pCy1] | 2.5 ± 0.1 × 10^–4 s^–1 | moderate tendency to precipitate at the longest time points | ~64 | notable inhibitory effect | ~32 |
| 25.7 ± 1.2 | form stable adducts |  | 256 | form stable adducts |  | 0.91 ± 0.30 | 256 | > 256 |  |  |  |  |  | Cc1ccc(C(C)C)cc1.F[P-](F)(F)(F)(F)F.[Cl-].[Ru+2].c1ccc(-c2ccnc3c2ccc2c(-c4ccccc4)ccnc23)cc1 [Ru-pCy2] | 4.5 ± 0.2 × 10^–4 s^–1 |  | ~8 | notable inhibitory effect |  |
|  | did not interact |  | 256 | did not interact |  | 0.57 ± 0.19 | 256 | > 256 | did not show appreciable variations | did not interact |  |  |  | Cc1ccc(C(C)C)cc1.F[P-](F)(F)(F)(F)F.[Cl-].[Ru+2].c1ccc2nc(-c3ccc4ccccc4n3)ccc2c1 [Ru-pCy3] |  |  |  | intermediate antibacterial characteristics |  |
|  |  |  |  |  |  |  |  |  |  |  | 16 (≈ 49.5 µM) | 32 (≈ 99 µM) | 64 (≈ 198 µM) | O=C(N[C@H](CO)[C@H](O)c1ccc([N+](=O)[O-])cc1)C(Cl)Cl [chloramphenicol, reference compound] |  |  |  |  |  |
